Counter-ions that a name gives are not always drawn.
Experiments:
[1] = tested on: subjects having specific phobias; conditions: cited from earlier work
[2] = tested on: subjects on chronic dosing schedules (chronically ill with tuberculosis); conditions: 500-1000 mg/day, side effects correlate with dosage amount; cited from earlier work
[3] = cited from earlier work
[4] = tested on: subject afflicted with recurring neuropathic pain; assay: Example 1: treatment of a subject with recurring neuropathic pain; type: in vivo, human
Experimental: After seven days, the dose of amitriptyline was doubled to 20 mg.

[5] = tested on: subject with paralytic sexual performance anxiety; conditions: subject unresponsive to purely behavioral interventions; cited from earlier work

N[C@@H]1CON=C1O [DCS, D-cycloserine]
average number of psychotherapy sessions to reach a clinical cure ([1]; DCS in conjunction with psychotherapy, psychotherapy alone required an average of eight sessions): two
fewer therapy sessions needed to reach clinical cure ([1]; DCS with cognitive behavioral therapy sessions, phobic disorders): 75%
infrequent side effects [2]: drowsiness, headache, confusion, tremor, vertigo, and memory difficulties, paresthesias, and seizure
time of peak blood levels after dosing ([3]; after dosing): 3 to 8 h
half-life ([3]; in vivo): 10 h

CN(C)CCC=C1c2ccccc2CCc2ccccc21 [amitriptyline hydrochloride]
effect on pain ([4]; 10 mg per day for seven days): little effect on the pain
effect on pain ([4]; 20 mg per day, after two days on the higher dose): substantially subsided

CCCc1nn(C)c2c(=O)[nH]c(-c3cc(S(=O)(=O)N4CCN(C)CC4)ccc3OCC)nc12 [sildenafil]
response to pharmaceutical treatment [5]: responded to pharmaceutical treatment

— patent publication US8309535B2, “Compositions and methods to treat recurrent medical conditions” (priority 2003, dated 2012)
